Source: ChEMBL document CHEMBL1201862, “PubChem BioAssay data set” (2004)
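Five concentrations, 48 hours, 96-well plates. The concentration for 50% growth inhibition is given as GI50.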 The source made the active and inactive calls. Rule as the data show it: active = GI50 up to about 1.1 µM and inactive = higher.

Assays:
Test in all cases: NCI tumour cell line growth inhibition, 48 h
786-0 = system: 786-0
A498 = system: A498
A549 = system: A549
ACHN = system: ACHN
BT-549 = system: BT-549
CAKI-1 = system: CAKI-1
CCRF-CEM = system: CCRF-CEM
COLO 205 = system: COLO 205
DU-145 = system: DU-145
EKVX = system: EKVX
HCC 2998 = system: HCC 2998
HCT-116 = system: HCT-116
HCT-15 = system: HCT-15
HL-60 = system: HL-60
HOP-62 = system: HOP-62
HOP-92 = system: HOP-92
HT-29 = system: HT-29
Hs-578T = system: Hs-578T
IGROV-1 = system: IGROV-1
K562 = system: K562
KM12 = system: KM12
LOX IMVI = system: LOX IMVI
M14 = system: M14
MCF7 = system: MCF7
MDA-MB-231 = system: MDA-MB-231
MDA-MB-435 = system: MDA-MB-435
MDA-N = system: MDA-N
MOLT-4 = system: MOLT-4
Malme-3M = system: Malme-3M
NCI-H23 = system: NCI-H23
NCI-H460 = system: NCI-H460
NCI-H522 = system: NCI-H522
NCI/ADR-RES = system: NCI/ADR-RES
OVCAR-3 = system: OVCAR-3
OVCAR-4 = system: OVCAR-4
OVCAR-5 = system: OVCAR-5
OVCAR-8 = system: OVCAR-8
PC-3 = system: PC-3
RPMI-8226 = system: RPMI-8226
RXF 393 = system: RXF 393
SF-268 = system: SF-268
SF-295 = system: SF-295
SF-539 = system: SF-539
SK-MEL-28 = system: SK-MEL-28
SK-MEL-2 = system: SK-MEL-2
SK-MEL-5 = system: SK-MEL-5
SK-OV-3 = system: SK-OV-3
SN12C = system: SN12C
SNB-19 = system: SNB-19
SR = system: SR
SW-620 = system: SW-620
T47D = system: T47D
TK-10 = system: TK-10
U-251 = system: U-251
UACC-257 = system: UACC-257
UACC-62 = system: UACC-62
UO-31 = system: UO-31
NCI-H226 = system: NCI-H226
SNB-75 = system: SNB-75

`COc1ccc(-n2c3c(c4c(CN(C)C)c(O)ccc42)C(=O)c2ccccc2C3=O)cc1` was tested, and the GI50 (786-0) was 1.89 µM (inactive), the GI50 (A498) was 1.21 µM (inactive) and the GI50 (A549) was 4.68 µM (inactive). The GI50 (ACHN) was 2.17 µM (inactive), the GI50 (BT-549) was 13.6 µM (inactive) and the GI50 (CAKI-1) was 14.2 µM (inactive). The GI50 (CCRF-CEM) was 2.99 µM (inactive), the GI50 (COLO 205) was 8.09 µM (inactive) and the GI50 (DU-145) was 12.9 µM (inactive). For the same compound, the GI50 (EKVX) was 7.76 µM (inactive), the GI50 (HCC 2998) was 2.77 µM (inactive) and the GI50 (HCT-116) was 1.68 µM (inactive). The GI50 (HCT-15) was 3.1 µM, the GI50 (HL-60) was 3.13 µM (inactive) and the GI50 (HOP-62) was 2.02 µM (inactive). For the same compound, the GI50 (HOP-92) was 16 µM (inactive), the GI50 (HT-29) was 2.19 µM (inactive) and the GI50 (Hs-578T) was 30.5 µM (inactive). The GI50 (IGROV-1) was 3.99 µM (inactive), the GI50 (K562) was 2.09 µM (inactive) and the GI50 (KM12) was 3.2 µM (inactive). For the same compound, the GI50 (LOX IMVI) was 2.49 µM (inactive), the GI50 (M14) was 3.54 µM (inactive) and the GI50 (MCF7) was 7.18 µM (inactive). For the same compound, the GI50 (MDA-MB-231) was 3.08 µM (inactive), the GI50 (MDA-MB-435) was 6.93 µM (inactive) and the GI50 (MDA-N) was 4.62 µM (inactive). The GI50 (MOLT-4) was 3 µM (inactive), the GI50 (Malme-3M) was 11.4 µM (inactive) and the GI50 (NCI-H23) was 12.7 µM (inactive). For the same compound, the GI50 (NCI-H460) was 4.24 µM (inactive), the GI50 (NCI-H522) was 12.3 µM (inactive) and the GI50 (NCI/ADR-RES) was 5.73 µM (inactive). For the same compound, the GI50 (OVCAR-3) was 13.5 µM (inactive), the GI50 (OVCAR-4) was 2.37 µM (inactive) and the GI50 (OVCAR-5) was 4.92 µM (inactive). The GI50 (OVCAR-8) was 3.26 µM (inactive), the GI50 (PC-3) was 13 µM (inactive) and the GI50 (RPMI-8226) was 2.17 µM (inactive). The GI50 (RXF 393) was 4.63 µM (inactive), the GI50 (SF-268) was 10.1 µM (inactive) and the GI50 (SF-295) was 14.7 µM (inactive). The GI50 (SF-539) was 2.04 µM (inactive), the GI50 (SK-MEL-28) was 3.38 µM (inactive) and the GI50 (SK-MEL-2) was 10 µM (inactive). For the same compound, the GI50 (SK-MEL-5) was 1.69 µM (inactive), the GI50 (SK-OV-3) was 2.48 µM (inactive) and the GI50 (SN12C) was 2.82 µM (inactive). The GI50 (SNB-19) was 4.4 µM (inactive), the GI50 (SR) was 2.45 µM (inactive) and the GI50 (SW-620) was 2.07 µM (inactive). The GI50 (T47D) was 2.67 µM (inactive), the GI50 (TK-10) was 17.6 µM (inactive) and the GI50 (U-251) was 2.94 µM (inactive). For the same compound, the GI50 (UACC-257) was 18.8 µM (inactive), the GI50 (UACC-62) was 4.41 µM (inactive) and the GI50 (UO-31) was 1.96 µM (inactive).
With `CCOC(=S)SC/C(=N\OC(C)(C)OC)c1ccccc1` the GI50 (786-0) was 55.1 µM (inactive), the GI50 (A498) was 72.6 µM (inactive) and the GI50 (A549) was 44.7 µM (inactive). For the same compound, the GI50 (ACHN) was 71.3 µM (inactive), the GI50 (BT-549) was 44 µM (inactive) and the GI50 (CAKI-1) was > 100 µM (inactive). For the same compound, the GI50 (CCRF-CEM) was 18.1 µM (inactive), the GI50 (COLO 205) was 42.8 µM (inactive) and the GI50 (DU-145) was > 100 µM (inactive). For the same compound, the GI50 (EKVX) was 48.9 µM (inactive), the GI50 (HCC 2998) was 26.9 µM (inactive) and the GI50 (HCT-116) was 24.9 µM (inactive). The GI50 (HCT-15) was 32.5 µM, the GI50 (HL-60) was 20.2 µM (inactive) and the GI50 (HOP-62) was 42.1 µM (inactive). The GI50 (HOP-92) was 20.7 µM (inactive), the GI50 (HT-29) was 23 µM (inactive) and the GI50 (Hs-578T) was 46.5 µM (inactive). The GI50 (IGROV-1) was 46.5 µM (inactive), the GI50 (K562) was 20.6 µM (inactive) and the GI50 (KM12) was 31.9 µM (inactive). The GI50 (LOX IMVI) was 16.3 µM (inactive), the GI50 (M14) was 29.1 µM (inactive) and the GI50 (MCF7) was 29.2 µM (inactive). The GI50 (MDA-MB-231) was > 100 µM (inactive), the GI50 (MDA-MB-435) was 25 µM (inactive) and the GI50 (MDA-N) was 36.1 µM (inactive). The GI50 (MOLT-4) was 20 µM (inactive), the GI50 (Malme-3M) was 45 µM (inactive) and the GI50 (NCI-H226) was 43.8 µM (inactive). The GI50 (NCI-H23) was 31.7 µM (inactive), the GI50 (NCI-H460) was 35 µM (inactive) and the GI50 (NCI-H522) was 24.1 µM (inactive). The GI50 (NCI/ADR-RES) was > 100 µM (inactive), the GI50 (OVCAR-3) was 41.1 µM (inactive) and the GI50 (OVCAR-4) was 69 µM (inactive). The GI50 (OVCAR-5) was 40.4 µM (inactive), the GI50 (OVCAR-8) was 88.7 µM (inactive) and the GI50 (PC-3) was 59.4 µM (inactive). The GI50 (RXF 393) was 25.6 µM (inactive), the GI50 (SF-268) was 56.9 µM (inactive) and the GI50 (SF-295) was 32.3 µM (inactive). For the same compound, the GI50 (SF-539) was > 100 µM (inactive), the GI50 (SK-MEL-28) was 47.3 µM (inactive) and the GI50 (SK-MEL-2) was 20.7 µM (inactive). The GI50 (SK-MEL-5) was 41 µM (inactive), the GI50 (SK-OV-3) was 43.7 µM (inactive) and the GI50 (SN12C) was 89.7 µM (inactive). The GI50 (SNB-19) was > 100 µM (inactive), the GI50 (SNB-75) was 0.453 µM (active) and the GI50 (SR) was 14.5 µM (inactive). The GI50 (SW-620) was 33.2 µM (inactive), the GI50 (T47D) was 20.7 µM (inactive) and the GI50 (TK-10) was 46.6 µM (inactive). For the same compound, the GI50 (U-251) was 41.9 µM (inactive), the GI50 (UACC-257) was 35.3 µM (inactive) and the GI50 (UACC-62) was 31.3 µM (inactive). For the same compound, the GI50 (UO-31) was 31.2 µM (inactive).
`C=C(C)[C@H]1C2=CC(C)=C(O2)[C@@H](O[C@@H]2c3oc(cc3C)[C@H](C(=C)C)[C@H]3C=C(CC[C@H]2C(=C)C)C(=O)O3)[C@H](C(=C)C)CCC2=C[C@H]1OC2=O` was tested, and the GI50 (786-0) was > 100 µM (inactive), the GI50 (A498) was > 100 µM (inactive) and the GI50 (A549) was > 100 µM (inactive). The GI50 (ACHN) was > 100 µM (inactive), the GI50 (BT-549) was > 100 µM (inactive) and the GI50 (CAKI-1) was > 100 µM (inactive). For the same compound, the GI50 (CCRF-CEM) was > 100 µM (inactive), the GI50 (COLO 205) was > 100 µM (inactive) and the GI50 (DU-145) was > 100 µM (inactive). For the same compound, the GI50 (EKVX) was > 100 µM (inactive), the GI50 (HCC 2998) was > 100 µM (inactive) and the GI50 (HCT-116) was > 100 µM (inactive). For the same compound, the GI50 (HCT-15) was > 100 µM, the GI50 (HL-60) was > 100 µM (inactive) and the GI50 (HOP-62) was 81.1 µM (inactive). The GI50 (HOP-92) was > 100 µM (inactive), the GI50 (Hs-578T) was > 100 µM (inactive) and the GI50 (IGROV-1) was > 100 µM (inactive). The GI50 (K562) was > 100 µM (inactive), the GI50 (KM12) was > 100 µM (inactive) and the GI50 (LOX IMVI) was > 100 µM (inactive). The GI50 (M14) was > 100 µM (inactive), the GI50 (MCF7) was > 100 µM (inactive) and the GI50 (MDA-MB-231) was > 100 µM (inactive). For the same compound, the GI50 (MDA-MB-435) was > 100 µM (inactive), the GI50 (MDA-N) was > 100 µM (inactive) and the GI50 (MOLT-4) was > 100 µM (inactive). For the same compound, the GI50 (Malme-3M) was > 100 µM (inactive), the GI50 (NCI-H226) was > 100 µM (inactive) and the GI50 (NCI-H23) was > 100 µM (inactive). For the same compound, the GI50 (NCI-H460) was > 100 µM (inactive), the GI50 (NCI-H522) was > 100 µM (inactive) and the GI50 (NCI/ADR-RES) was > 100 µM (inactive). For the same compound, the GI50 (OVCAR-3) was > 100 µM (inactive), the GI50 (OVCAR-4) was > 100 µM (inactive) and the GI50 (OVCAR-5) was > 100 µM (inactive). For the same compound, the GI50 (OVCAR-8) was > 100 µM (inactive), the GI50 (PC-3) was > 100 µM (inactive) and the GI50 (RPMI-8226) was > 100 µM (inactive). The GI50 (SF-268) was > 100 µM (inactive), the GI50 (SF-295) was > 100 µM (inactive) and the GI50 (SK-MEL-28) was > 100 µM (inactive). For the same compound, the GI50 (SK-MEL-2) was > 100 µM (inactive), the GI50 (SK-MEL-5) was > 100 µM (inactive) and the GI50 (SK-OV-3) was > 100 µM (inactive). For the same compound, the GI50 (SN12C) was > 100 µM (inactive), the GI50 (SNB-19) was > 100 µM (inactive) and the GI50 (SNB-75) was > 100 µM (inactive). The GI50 (SR) was > 100 µM (inactive), the GI50 (SW-620) was > 100 µM (inactive) and the GI50 (T47D) was > 100 µM (inactive). The GI50 (TK-10) was > 100 µM (inactive), the GI50 (U-251) was > 100 µM (inactive) and the GI50 (UACC-257) was > 100 µM (inactive). The GI50 (UACC-62) was > 100 µM (inactive) and the GI50 (UO-31) was > 100 µM (inactive).
